Laboratory results taken from US12404239B2, “Modulators of BCL6 as ligand directed degraders” (Celgene Corporation, priority 2022, dated 2025).

molecular target: T1, BCL6 (Homo sapiens, UniProt P41182); experiment: BCL6_HiBiT degradation assay (2 h); assay type: cell-based; conditions: DHL-4_BCL6_HiBiT cells
T1 construct: HiBiT-tag knocked into endogenous BCL6 locus using CRISPR; endogenous in cells; host or cells: DHL-4_BCL6_HiBiT cells (CRISPR knock-in)
Experimental: A DHL-4 cell line with HiBiT-tag knocked into endogenous BCL6 locus using CRISPR was generated. The DHL-4_BCL6_HiBiT cells were dispensed into 384-well plates (Corning no. 3570) that were pre-spotted with compounds. Compounds were dispensed by an acoustic dispenser (ATS acoustic transfer system from EDC Biosystems) into a 384-well plate in a 10-point dose response curve using 3-fold dilutions starting at 1-10 μM and going down to […]. 25 μL of media (RPMI-1640+10% heat inactivated FBS+1×Pen/Strep) containing 2500 of DHL-4 was dispensed per well. Assay plates were incubated at 37° C. with 5% CO2 for 2 hours. After incubation, 25 μL of the Nano-Glo HiBiT lytic detection working solution (Promega, catalogue no. N3040, Madison, WI) was added to each well and incubated at room temperature for 15-30 min, protected from light. After 30 min, luminescence was read on an Envision or PHERAstar luminescence reader. To determine the EC50 value (the half-maximum effective concentration) and the level of the gradation (Yconstant) of a BCL6 degrader, luminescent signal normalized by DMSO control (Y) and compound concentration (x) was fitted using a four-parameter dose-response model (Y=(A+((B−A)/1+((C/x)^D) in Dotmatics. Fitted value C is the degradation EC50 and the minimum value A is the Y constant.
The degradation of BCL6 at 2 h in DHL-4 results are shown in Table 5, where EC50 is the half maximal effect and Ycon is the % remaining maximal effect.

YCon (% remaining maximal effect), (>60%):
CC1CN(c2ncc(Cl)c(Nc3ccc4c(c3)CC(=O)N4C)n2)CCCC1Nc1ccc2c(C3CCC(=O)NC3=O)nn(C)c2c1 (single isomer, unassigned) [Example 50, 3-(6-((1-(5-chloro-4-((1-methyl-2-oxoindolin-5-yl)amino)pyrimidin-2-yl)-3-methylazepan-4-yl)amino)-1-methyl-1H-indazol-3-yl)piperidine-2,6-dione]
CN1C(=O)Cc2cc(Nc3nc(N4CCC(Nc5ccc6c(C7CCC(=O)NC7=O)nn(C)c6c5)CC4)ncc3Cl)ccc21 (single isomer, unassigned) [Example 54]

YCon (% remaining maximal effect), ^^ (20-60%):
CC1CN(c2ncc(Cl)c(Nc3ccc4c(c3)CC(=O)N4C)n2)CCCC1Nc1ccc2c(C3CCC(=O)NC3=O)nn(C)c2c1 (single isomer, unassigned) [Example 51, 3-(6-((1-(5-chloro-4-((1-methyl-2-oxoindolin-5-yl)amino)pyrimidin-2-yl)-3-methylazepan-4-yl)amino)-1-methyl-1H-indazol-3-yl)piperidine-2,6-dione]
CN1C(=O)Cc2cc(Nc3nc(N4CCC(Nc5ccc6c(C7CCC(=O)NC7=O)nn(C)c6c5)CC4)ncc3Cl)ccc21 (single isomer, unassigned) [Example 53]

same assay, conditions: DHL-4_BCL6_HiBiT cells, read-out: YCon (% remaining maximal effect)

Percent BCL6 remaining at maximal degradation (Ycon), 20 to 60%:
C[C@@H]1CN(c2ncc(Cl)c(Nc3ccc4c(c3)CC(=O)N4C)n2)C[C@@H](C)N1c1ccc2c([C@H]3CCC(=O)NC3=O)nn(C)c2c1 (single isomer, unassigned) [Example 79]
C[C@H]1C[C@H](Nc2ccc3c([C@@H]4CCC(=O)NC4=O)nn(C)c3c2)CCN1c1ncc(Cl)c(Nc2ccc3c(c2)CC(=O)N3C)n1 (single isomer, unassigned) [Example 83]
CN1C(=O)Cc2cc(Nc3nc(N(C)[C@H]4CCN(c5ccc6c(C7CCC(=O)NC7=O)nn(C)c6c5)C(=O)C4)ncc3Cl)ccc21 (single isomer, unassigned) [Example 128]

Percent BCL6 remaining at maximal degradation (Ycon), < 20%:
C[C@@H]1CN(c2ncc(Cl)c(Nc3ccc4c(c3)CC(=O)N4C)n2)CC[C@H]1Nc1ccc2c([C@H]3CCC(=O)NC3=O)nn(C)c2c1 (single isomer, unassigned) [Example 71]
C[C@@H]1CN(c2ncc(Cl)c(Nc3ccc4c(c3)CC(=O)N4C)n2)CC[C@H]1Nc1ccc2c([C@@H]3CCC(=O)NC3=O)nn(C)c2c1 (single isomer, unassigned) [Example 72]
COCCN1C(=O)Cc2cc(Nc3nc(N4CC[C@@H](Nc5ccc6c([C@H]7CCC(=O)NC7=O)nn(C)c6c5)[C@H](C)C4)ncc3Cl)ccc21 (single isomer, unassigned) [Example 76]
COCCN1C(=O)Cc2cc(Nc3nc(N4CC[C@@H](Nc5ccc6c([C@@H]7CCC(=O)NC7=O)nn(C)c6c5)[C@H](C)C4)ncc3Cl)ccc21 (single isomer, unassigned) [Example 77]
C[C@H]1C[C@H](Nc2ccc3c([C@H]4CCC(=O)NC4=O)nn(C)c3c2)CCN1c1ncc(Cl)c(Nc2ccc3c(c2)CC(=O)N3C)n1 (single isomer, unassigned) [Example 82]
C[C@@H]1CN(c2ncc(Cl)c(Nc3cc4c(cc3F)N(C)C(=O)C4)n2)CC[C@H]1Nc1ccc2c([C@H]3CCC(=O)NC3=O)nn(C)c2c1 (single isomer, unassigned) [Example 93]
C[C@@H]1CN(c2ncc(Cl)c(Nc3cc4c(cc3F)N(C)C(=O)C4)n2)CC[C@H]1Nc1ccc2c([C@@H]3CCC(=O)NC3=O)nn(C)c2c1 (single isomer, unassigned) [Example 94]
C[C@@H]1CN(c2ncc(Cl)c(Nc3cc(F)c4c(c3)CC(=O)N4C)n2)CC[C@H]1Nc1ccc2c([C@H]3CCC(=O)NC3=O)nn(C)c2c1 (single isomer, unassigned) [Example 96]
C[C@@H]1CN(c2ncc(Cl)c(Nc3cc(F)c4c(c3)CC(=O)N4C)n2)CC[C@H]1Nc1ccc2c([C@@H]3CCC(=O)NC3=O)nn(C)c2c1 (single isomer, unassigned) [Example 97]
C[C@@H]1CN(c2ncc(Cl)c(Nc3ccc4c(c3F)CC(=O)N4C)n2)CC[C@H]1Nc1ccc2c([C@H]3CCC(=O)NC3=O)nn(C)c2c1 (single isomer, unassigned) [Example 99]
C[C@@H]1CN(c2ncc(Cl)c(Nc3ccc4c(c3F)CC(=O)N4C)n2)CC[C@H]1Nc1ccc2c([C@@H]3CCC(=O)NC3=O)nn(C)c2c1 (single isomer, unassigned) [Example 100]
C[C@@H]1CN(c2ncc(Cl)c(Nc3ccc4c(c3)CC(=O)N4CCN3CCOCC3)n2)CC[C@H]1Nc1ccc2c([C@H]3CCC(=O)NC3=O)nn(C)c2c1 (single isomer, unassigned) [Example 102]
C[C@@H]1CN(c2ncc(Cl)c(Nc3ccc4c(c3)CC(=O)N4CCN3CCOCC3)n2)CC[C@H]1Nc1ccc2c([C@@H]3CCC(=O)NC3=O)nn(C)c2c1 (single isomer, unassigned) [Example 103]
CNCCN1C(=O)Cc2cc(Nc3nc(N4CC[C@@H](Nc5ccc6c([C@H]7CCC(=O)NC7=O)nn(C)c6c5)[C@H](C)C4)ncc3Cl)ccc21 (single isomer, unassigned) [Example 105]
CNCCN1C(=O)Cc2cc(Nc3nc(N4CC[C@@H](Nc5ccc6c([C@@H]7CCC(=O)NC7=O)nn(C)c6c5)[C@H](C)C4)ncc3Cl)ccc21 (single isomer, unassigned) [Example 106]
C[C@@H]1CN(c2ncc(Cl)c(Nc3ccc4c(c3)CC(=O)N4CCC(C)(C)F)n2)CC[C@H]1Nc1ccc2c([C@H]3CCC(=O)NC3=O)nn(C)c2c1 (single isomer, unassigned) [Example 108]
C[C@@H]1CN(c2ncc(Cl)c(Nc3ccc4c(c3)CC(=O)N4CCC(C)(C)F)n2)CC[C@H]1Nc1ccc2c([C@@H]3CCC(=O)NC3=O)nn(C)c2c1 (single isomer, unassigned) [Example 109]
C[C@@H]1CN(c2ncc(Cl)c(Nc3ccc4c(c3)CC(=O)N4CC(C)(F)F)n2)CC[C@H]1Nc1ccc2c([C@H]3CCC(=O)NC3=O)nn(C)c2c1 (single isomer, unassigned) [Example 111]
C[C@@H]1CN(c2ncc(Cl)c(Nc3ccc4c(c3)CC(=O)N4CC(C)(F)F)n2)CC[C@H]1Nc1ccc2c([C@@H]3CCC(=O)NC3=O)nn(C)c2c1 (single isomer, unassigned) [Example 112]

Percent BCL6 remaining at maximal degradation (Ycon), > 60%:
CN1C(=O)Cc2cc(Nc3nc(N4CC[C@H](Nc5ccc6c(C7CCC(=O)NC7=O)nn(C)c6c5)[C@H](C(F)(F)F)C4)ncc3Cl)ccc21 (relative stereo) [Example 147, rel-3-(6-(((3R,4S)-1-(5-chloro-4-((1-methyl-2-oxoindolin-5-yl)amino)pyrimidin-2-yl)-3-(trifluoromethyl)piperidin-4-yl)amino)-1-methyl-1H-indazol-3-yl)piperidine-2,6-dione]
CC1CCN(c2ncc(Cl)c(Nc3ccc4c(c3)CC(=O)N4C)n2)CCC1Nc1ccc2c(C3CCC(=O)NC3=O)nn(C)c2c1 (single isomer, unassigned) [Example 48, 3-(6-((1-(5-chloro-4-((1-methyl-2-oxoindolin-5-yl)amino)pyrimidin-2-yl)-5-methylazepan-4-yl)amino)-1-methyl-1H-indazol-3-yl)piperidine-2,6-dione]
C[C@@H]1CN(c2ncc(Cl)c(Nc3ccc4c(c3)CC(=O)N4C)n2)C[C@@H](C)N1c1ccc2c([C@@H]3CCC(=O)NC3=O)nn(C)c2c1 (single isomer, unassigned) [Example 80]
C[C@H]1C[C@H](N(C)c2ccc3c([C@H]4CCC(=O)NC4=O)nn(C)c3c2)CCN1c1ncc(Cl)c(Nc2ccc3c(c2)CC(=O)N3C)n1 (single isomer, unassigned) [Example 87]
C[C@H]1C[C@H](N(C)c2ccc3c([C@@H]4CCC(=O)NC4=O)nn(C)c3c2)CCN1c1ncc(Cl)c(Nc2ccc3c(c2)CC(=O)N3C)n1 (single isomer, unassigned) [Example 88]
CCN1C(=O)Cc2cc(Nc3nc(N4CCC(Nc5ccc6c([C@H]7CCC(=O)NC7=O)nn(C)c6c5)CC4)ncc3Cl)ccc21 (single isomer, unassigned) [Example 90]
CCN1C(=O)Cc2cc(Nc3nc(N4CCC(Nc5ccc6c([C@@H]7CCC(=O)NC7=O)nn(C)c6c5)CC4)ncc3Cl)ccc21 (single isomer, unassigned) [Example 91]
